Source: paper PMC9011347, “Small-Molecule Inhibitors Targeting Lipolysis in Human Adipocytes” (Journal of the American Chemical Society, 2022)

Key:
Assay in all cases: Off-target lipid hydrolase assay, Expi293 lysates
Assay type in all cases: biochemical
PNPLA6 = target: T1, PNPLA6 (Homo sapiens, UniProt Q8IY17); settings: NG-497 100 µM, substrate LPC
T1 construct: made in house; host or cells: Expi293 cells, lysate
Protocol: (§1) Fig. S3: Investigation of off-target effects of NG-497 on structurally and functionally related lipid hydrolases. (a) […]
(§2) NG-497, inhibited PNPLA1/CGI-58-dependent ω-O-acylceramide formation. (b-h) Enzymes were overexpressed in Expi293 cells and cell lysates were used as source of enzymatic activity. Cell lysates were incubated with the indicated substrates 1-oleoyl phosphatidylcholine (LPC), di-oleoyl phosphatidic acid (PA), di-octanoyl phosphatidylglycerol (PG), or para-nitrophenylvalerate (pNPV). Experiments were performed in the presence or absence of NG-497 (100 µM) and the formation of reaction products was monitored. Cell lysates of LacZ-transfected cells were used to detect basal cellular activity. As positive controls, enzymes were inactivated with lipase inhibitors Orlistat (40 µM), R-BEL (10 µM), KLH-45 (20 nM), HSLi (10 µM), or PMSF (10µM).
(§3) Data were calculated relative to the basal activity detected in LacZ-transfected controls. […]
(§4) LPL activity was inhibited using an anti-LPL antibody. All data are presented as mean ± S.D. Statistical significance was determined via ANOVA followed by Bonferroni post hoc test ( ***, p < 0.001).
(§5) (1 picture or pasted object on this page, not shown here) […]
(§6) 2-mercaptoethanol, 4% sodium dodecyl sulfate, 20% glycerin, bromophenol blue) at 98°C for 10 min. For detection of protein expression, anti-Xpress (Thermo Fisher Scientific #R910-25), anti-mouse-HRP Trueblot (Rockland #18-8817-33), and anti-FLAG HRP (MiliporeSigma #A8592) antibodies were used.
(§7) Analysis of toxicity in HepG2 hepatocytes. For LDH-based viability assays, HepG2 cells were seeded in 96-well plates in DMEM (Gibco) containing 100 IU/ml penicillin, 100 IU/ml streptomycin (MilliporeSigma), and 3% heat-inactivated FCS. […]
(§8) Serum stability of ATGL inhibitors. Inhibitors were incubated in 200 µl human serum for 0 and 3 h at 37°C and extracted in 1 ml MTBE/methanol (3/1, v/v) containing acetic acid/butylated hydroxytoluene (500nM). The extraction mixture was shaken at 1,400 x rpm for 1 h at RT and centrifuged for 10 min at 13,000 x rpm for phase separation. 700 µl of the upper, organic phase were collected, dried under a stream of nitrogen, and lipids resolved in 200 µl methanol/isopropanol/H2O (6/3/1), for UPLC- […]
(§9) Chromatographic separation was modified after Knittelfelder et al.2 using an AQUITY UPLC system (Waters Corporation, Milford, USA) equipped with a ZORBAX Eclipse XDB-C18- column (3 × 30 mm, 1.8 µm; Agilent Technologies, Santa Clara, USA) starting a 15 min gradient with 80% solvent A (water/methanol, 1/1, v/v) and 20% solvent B (2-propanol). Both solvents contained ammonium acetate (10 mM), formic acid (0.1 vol%) and phosphoric acid (8 µM) and the column was kept at 50°C. […]

PNPLA7 = target: T2, PNPLA7 (Homo sapiens, UniProt Q6ZV29); settings: NG-497 100 µM, substrate LPC
T2 construct: made in house; host or cells: Expi293 cells, lysate
Protocol: as §1, §2, §3, §4, §5, §6, §7, §8, §9

PNPLA8 = target: T3, PNPLA8 (Homo sapiens, UniProt Q9NP80); settings: NG-497 100 µM, substrate PA
T3 construct: made in house; host or cells: Expi293 cells, lysate
Protocol: as §1, §2, §3, §4, §5, §6, §7, §8, §9

PNPLA9 = target: T4, PNPLA9 (Homo sapiens, UniProt O60733); settings: NG-497 100 µM, substrate PG
T4 construct: made in house; host or cells: Expi293 cells, lysate
Protocol: as §1, §2, §3, §4, §5, §6, §7, §8, §9

T3 sequence (Q9NP80 whole entry): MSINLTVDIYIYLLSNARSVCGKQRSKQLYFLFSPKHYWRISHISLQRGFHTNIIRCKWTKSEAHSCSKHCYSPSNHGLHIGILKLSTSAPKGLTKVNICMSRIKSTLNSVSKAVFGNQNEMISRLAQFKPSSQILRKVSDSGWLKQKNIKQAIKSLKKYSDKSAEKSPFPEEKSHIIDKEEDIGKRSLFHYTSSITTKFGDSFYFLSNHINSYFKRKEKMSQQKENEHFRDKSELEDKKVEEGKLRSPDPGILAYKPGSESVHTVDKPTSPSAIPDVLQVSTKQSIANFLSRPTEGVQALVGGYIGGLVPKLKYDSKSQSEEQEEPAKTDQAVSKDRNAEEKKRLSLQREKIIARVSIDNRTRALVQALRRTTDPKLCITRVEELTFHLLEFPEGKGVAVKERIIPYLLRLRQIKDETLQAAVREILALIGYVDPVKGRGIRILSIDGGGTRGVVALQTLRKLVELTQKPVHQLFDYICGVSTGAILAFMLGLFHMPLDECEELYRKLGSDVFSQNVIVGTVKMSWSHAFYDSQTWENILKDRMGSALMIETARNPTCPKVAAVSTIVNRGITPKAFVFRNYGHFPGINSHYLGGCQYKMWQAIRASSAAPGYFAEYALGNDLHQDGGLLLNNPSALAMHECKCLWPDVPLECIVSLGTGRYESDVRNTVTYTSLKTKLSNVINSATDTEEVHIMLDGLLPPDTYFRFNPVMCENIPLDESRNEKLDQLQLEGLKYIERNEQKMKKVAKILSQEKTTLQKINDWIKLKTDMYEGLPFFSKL
T1 sequence (Q8IY17 whole entry): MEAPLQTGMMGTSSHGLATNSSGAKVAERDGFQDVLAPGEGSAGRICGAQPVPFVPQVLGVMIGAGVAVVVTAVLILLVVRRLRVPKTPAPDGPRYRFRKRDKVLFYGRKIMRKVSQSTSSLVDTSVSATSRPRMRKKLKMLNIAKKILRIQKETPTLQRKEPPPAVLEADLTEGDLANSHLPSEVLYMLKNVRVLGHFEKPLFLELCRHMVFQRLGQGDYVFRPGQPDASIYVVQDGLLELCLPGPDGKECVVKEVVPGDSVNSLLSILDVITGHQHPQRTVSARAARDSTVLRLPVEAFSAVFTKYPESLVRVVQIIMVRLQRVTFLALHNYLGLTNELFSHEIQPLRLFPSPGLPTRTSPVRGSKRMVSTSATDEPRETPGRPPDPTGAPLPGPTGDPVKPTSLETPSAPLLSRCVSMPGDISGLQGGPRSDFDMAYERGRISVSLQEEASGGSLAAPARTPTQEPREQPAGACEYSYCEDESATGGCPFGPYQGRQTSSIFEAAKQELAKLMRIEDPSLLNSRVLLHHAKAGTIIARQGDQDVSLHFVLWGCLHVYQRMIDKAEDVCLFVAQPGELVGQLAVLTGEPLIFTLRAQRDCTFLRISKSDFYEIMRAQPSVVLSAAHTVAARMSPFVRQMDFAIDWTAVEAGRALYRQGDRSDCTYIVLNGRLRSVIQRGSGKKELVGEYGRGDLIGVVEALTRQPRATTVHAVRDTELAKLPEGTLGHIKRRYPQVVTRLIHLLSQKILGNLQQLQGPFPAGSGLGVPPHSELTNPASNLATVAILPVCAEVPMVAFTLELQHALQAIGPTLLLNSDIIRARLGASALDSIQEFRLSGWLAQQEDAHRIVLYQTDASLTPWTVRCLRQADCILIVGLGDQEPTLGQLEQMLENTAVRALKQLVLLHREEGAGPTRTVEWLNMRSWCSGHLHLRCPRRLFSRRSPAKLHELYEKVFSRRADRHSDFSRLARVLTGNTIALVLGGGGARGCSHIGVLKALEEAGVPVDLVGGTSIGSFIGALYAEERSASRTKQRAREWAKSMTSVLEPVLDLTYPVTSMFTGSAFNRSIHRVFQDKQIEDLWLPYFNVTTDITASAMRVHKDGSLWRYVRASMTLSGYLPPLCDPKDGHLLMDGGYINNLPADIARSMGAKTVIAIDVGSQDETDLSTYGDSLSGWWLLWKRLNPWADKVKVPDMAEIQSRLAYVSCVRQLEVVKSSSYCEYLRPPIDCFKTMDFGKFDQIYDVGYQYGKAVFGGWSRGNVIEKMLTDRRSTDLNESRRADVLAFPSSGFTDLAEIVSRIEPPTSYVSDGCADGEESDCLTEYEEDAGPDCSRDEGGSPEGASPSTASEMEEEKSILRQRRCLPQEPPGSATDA
T2 sequence (Q6ZV29 whole entry): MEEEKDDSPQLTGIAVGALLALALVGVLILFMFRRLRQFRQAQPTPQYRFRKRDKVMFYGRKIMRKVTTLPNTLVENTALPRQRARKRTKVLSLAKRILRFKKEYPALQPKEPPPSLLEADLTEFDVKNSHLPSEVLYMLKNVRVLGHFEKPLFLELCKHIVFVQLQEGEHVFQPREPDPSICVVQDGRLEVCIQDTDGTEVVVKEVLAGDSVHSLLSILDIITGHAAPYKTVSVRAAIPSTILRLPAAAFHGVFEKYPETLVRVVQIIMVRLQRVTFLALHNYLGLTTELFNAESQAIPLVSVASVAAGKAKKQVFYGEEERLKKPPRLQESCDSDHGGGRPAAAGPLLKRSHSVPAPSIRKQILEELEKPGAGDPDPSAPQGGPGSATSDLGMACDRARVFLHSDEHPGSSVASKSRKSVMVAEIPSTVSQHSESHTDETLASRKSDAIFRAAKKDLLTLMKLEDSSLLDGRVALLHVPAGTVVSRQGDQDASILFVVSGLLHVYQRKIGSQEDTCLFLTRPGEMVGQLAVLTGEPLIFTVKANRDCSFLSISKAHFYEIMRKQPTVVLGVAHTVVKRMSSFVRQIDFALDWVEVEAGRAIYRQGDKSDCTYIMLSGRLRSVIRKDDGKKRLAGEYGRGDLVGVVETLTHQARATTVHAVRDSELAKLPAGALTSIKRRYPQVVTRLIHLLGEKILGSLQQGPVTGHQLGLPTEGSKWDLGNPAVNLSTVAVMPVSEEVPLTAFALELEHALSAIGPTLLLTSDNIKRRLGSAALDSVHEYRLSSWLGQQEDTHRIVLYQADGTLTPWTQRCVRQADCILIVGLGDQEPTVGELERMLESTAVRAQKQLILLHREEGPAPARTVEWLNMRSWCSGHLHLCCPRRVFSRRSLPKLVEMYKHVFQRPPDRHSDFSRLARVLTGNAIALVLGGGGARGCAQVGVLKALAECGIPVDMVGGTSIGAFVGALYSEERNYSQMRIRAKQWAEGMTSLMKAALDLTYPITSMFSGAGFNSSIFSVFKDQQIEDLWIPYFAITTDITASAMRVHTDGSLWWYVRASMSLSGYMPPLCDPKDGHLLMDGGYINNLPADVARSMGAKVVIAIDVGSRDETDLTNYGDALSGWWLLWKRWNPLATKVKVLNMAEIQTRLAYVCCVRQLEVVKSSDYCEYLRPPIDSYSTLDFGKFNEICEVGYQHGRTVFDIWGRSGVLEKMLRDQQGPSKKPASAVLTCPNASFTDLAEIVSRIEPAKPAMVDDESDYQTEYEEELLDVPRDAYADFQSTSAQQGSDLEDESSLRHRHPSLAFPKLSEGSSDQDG
T4 sequence (O60733 whole entry): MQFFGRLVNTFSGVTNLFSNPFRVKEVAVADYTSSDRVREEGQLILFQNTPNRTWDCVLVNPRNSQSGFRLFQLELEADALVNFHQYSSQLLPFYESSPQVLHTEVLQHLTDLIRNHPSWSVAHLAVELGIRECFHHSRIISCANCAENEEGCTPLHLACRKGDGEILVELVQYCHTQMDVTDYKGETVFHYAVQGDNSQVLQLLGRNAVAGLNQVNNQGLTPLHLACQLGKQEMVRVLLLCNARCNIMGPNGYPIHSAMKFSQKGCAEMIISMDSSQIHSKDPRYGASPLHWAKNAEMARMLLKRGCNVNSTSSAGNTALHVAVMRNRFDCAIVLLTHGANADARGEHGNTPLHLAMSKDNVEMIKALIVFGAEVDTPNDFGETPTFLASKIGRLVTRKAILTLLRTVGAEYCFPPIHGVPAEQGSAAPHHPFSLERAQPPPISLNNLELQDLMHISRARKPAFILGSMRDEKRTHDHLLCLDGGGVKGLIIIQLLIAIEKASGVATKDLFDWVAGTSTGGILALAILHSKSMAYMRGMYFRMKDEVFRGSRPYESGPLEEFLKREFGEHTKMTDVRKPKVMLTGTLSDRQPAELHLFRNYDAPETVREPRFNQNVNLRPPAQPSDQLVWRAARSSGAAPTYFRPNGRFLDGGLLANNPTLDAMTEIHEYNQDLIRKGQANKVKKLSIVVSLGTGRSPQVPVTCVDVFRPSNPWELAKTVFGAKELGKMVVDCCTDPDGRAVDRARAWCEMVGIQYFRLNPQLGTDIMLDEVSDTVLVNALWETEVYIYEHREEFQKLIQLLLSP

CCOc1ccc(-c2cc(OC)cc(C(=O)OC(C)C)n2)cc1 [NG-497]
did not observe inhibition: inhibition of PNPLA6 (PNPLA6) | inhibition of PNPLA7 (PNPLA7) | inhibition of PNPLA8 (PNPLA8) | inhibition of PNPLA9 (PNPLA9)
